Reference: ChEMBL document CHEMBL1154967, “Bioactive bromophycolides R-U from the Fijian red alga Callophycus serratus” (J Nat Prod, 2010)
pIC50: −log10 of the molar value. Converted amounts (≈) assume the structure as drawn.

Tests used:
[1] = test system: Mycobacterium tuberculosis; assay: Antitubercular activity against Mycobacterium tuberculosis […] ATCC 27294 after 4 days by microplate alamar blue assay; assay type: functional; conditions: 96 h
Plasmodium falciparum = assay: Antimalarial activity against Plasmodium falciparum assessed as SYBR Green uptake after 48 hrs; assay type: functional, organism-based
Enterococcus faecium = assay: Antibacterial activity against vancomycin resistant Enterococcus faecium ATCC 700221; assay type: functional, organism-based
Staphylococcus aureus = assay: Antibacterial activity against methicillin resistant Staphylococcus aureus ATCC 33591; assay type: functional, organism-based
Candida albicans = assay: Antifungal activity against amphotericin resistant Candida albicans ATCC 90873 after 12 to 15 hrs by Alamar Blue assay; assay type: functional, organism-based

Row | Structure (SMILES) | MIC [1] [µM] | pIC50 (Plasmodium falciparum) | pIC50 (Enterococcus faecium) | pIC50 (Staphylococcus aureus) | pIC50 (Candida albicans)
1 | C=C(C)[C@@H]1CC[C@]2(C)O[C@H]2CC[C@@]2(C)[C@H](Cc3cc(ccc3O)C(=O)O1)C(=C)CC[C@@H]2Br [BROMOPHYCOLIDE R] | > 50 | 5.77 | < 4.82 | < 4.82 | < 4.82
2 | CC1=CC[C@H](Br)[C@@]2(C)CC[C@@H](Br)[C@@]3(C)CC[C@H](OC(=O)c4ccc(O)c(c4)C[C@H]12)C(C)(C)O3 [BROMOPHYCOLIDE U] | 22 (≈ 12.9 µg/mL) | 5.68 | 6.05 | 6.05 | < 4.82
3 | C=C1CC[C@H](Br)[C@@]2(C)CC[C@@H]3O[C@@]3(C)CC[C@@H](C(C)(C)Br)OC(=O)c3ccc(O)c(c3)C[C@H]12 [BROMOPHYCOLIDE S] | 23 (≈ 13.4 µg/mL) | 6.05 | 5.42 | < 4.82 | < 4.82
